According to patent US10221227B2, “Peptide for promoting osteogenic differentiation or vascularization and use thereof” (INDUSTRY FOUNDATION OF CHONNAM NATIONAL UNIVERSITY, priority 2015, dated 2019):
Ends that are not written are not given here.

Columns and labels:
alkaline phosphatase = settings: at 1 μg/μL of BFP 5; RT-PCR / enzyme activity kit
Osterix = Osterix expression at varied concentrations of BFP 5 (FIG. 8); format: cell-based
[1] = tested on: alkaline phosphatase and Osterix; test: Level of proteins expressed in osteoblasts (FIG. 6); format: cell-based; settings: FIG. 6, protein level
mesenchymal stem cells = test: Measurement of mineralization by Alizarin Red staining; format: cell-based, Balb/c mouse; settings: cells added with 1 μg/μL of BFP 5; tested at 0.01, 0.1, 1 and 10 μg/μL, osteogenic differentiation medium, two additional days
Protocol: Mesenchymal stem cells (1×10^4), which were cloned from Balb/c mouse bone marrow stromal cells) were aliquoted into 10% FBS-containing DMEM and cultured in an atmosphere (about 37° C., 5% CO2) for 3 days, and thereby the mesenchymal stem cells to be used as osteoblasts in the present experiment were prepared. Osteogenic differentiation medium (hereinafter, “ODM”) consists of DMEM which contains 50 μg/mL of ascorbic acid, 10^−8 M dexamethasone, 10 mM β-glycerophosphate, etc.
The differentiation of the mesenchymal stem cells into osteoblasts causes calcium accumulation. Here, the degree of calcium accumulation refers to the degree of differentiation of osteoblasts, and the degree of accumulation of calcium ions can be confirmed by observing the degree of staining of the cells that are stained red, via Alizarin Red staining. In this regard, the mineralization was measured via Alizarin Red staining. That is, as the differentiation into osteoblasts are promoted there are more regions that can be stained by Alizarin Red. Accordingly, the degree of osteogenic differentiation can be confirmed by adding Alizarin Red to the osteogenic differentiation medium, treating with the peptide of SEQ ID NO: 1 (BFP 5), and observing the degree of Alizarin Red staining. […]

VEGF = test: Effect on vascularization: expression of VEGF (FIG. 9); format: cell-based; settings: cells treated with BFP 5; alongside VEGF, FGF, SDF-1a, SDF-1g
[2] = tested on: Runx2, alkaline phosphatase, Osteopontin, collagen type 1, DLX5, and Osterix; test: Expression of osteoblast-specific genes under a fluorescent microscope using antibodies (FIG. 5); format: cell-based; settings: cells treated with BFP 5, fluorescent microscope using antibodies
Description: An osteoblast-specific protein is expressed upon differentiation into osteoblasts. When the antibody to the protein was reacted to cells and the degree of binding was confirmed by a fluorescent microscope.

“PPRACPTARALCEIR (cysteine pairing not given here) [SDF-1d-derived peptide consisting of 15 amino acids, named bone forming peptide 5]” was tested, and the “expression of alkaline phosphatase” value (alkaline phosphatase) was “strong expression”, the “concentration of BFP 5 at which expression (Osterix) is at the highest level” value (Osterix) was 0.1 µg/mL and the “Osterix protein expressed in osteoblasts” value [1] was “strongly expressed”. For the same sequence, the “alkaline phosphatase protein expressed in osteoblasts” value [1] was “strongly expressed”, the “Alizarin Red staining (mineralization accumulated via osteogenic differentiation)” value (mesenchymal stem cells) was “strongest staining” and the “expression of VEGF, a protein associated with vascularization” value (VEGF) was “strong expression”. For the same sequence, the “expression of DLX5” value [2] was “strongly expressed”, the “expression of Osteopontin” value [2] was “strongly expressed” and the “expression of Osterix” value [2] was “strongly expressed”. For the same sequence, the “expression of Runx2” value [2] was “strongly expressed”, the “expression of alkaline phosphatase” value [2] was “strongly expressed” and the “expression of collagen type 1” value [2] was “strongly expressed”.
